{
  "source": "patent US7572885B2",
  "about": "“Isolated GAGE-7B and 8 proteins” (Ludwig Institute For Cancer Research, priority 1998, dated 2009)",
  "key": {"[1]": {"test_system": "GAGE genes expression in PHA stimulated PBLs", "experiment": "Induction of GAGE gene expression by demethylation in PHA stimulated PBLs", "format": "cell-based", "settings": "1 uM, 72 hours in culture medium", "procedure": "(§1) These experiments were designed to determine expression of GAGE genes in various cell and tumor types. For each type of cell assayed, total RNA was extracted, using standard guanidium-isothiocyanate procedures, as taught by e.g., Davis, et al. in Basic Methods In Molecular Biology, Elsevier Science Publishing Co., New York (1986), pp. 130-135. Reverse transcription was carried out on 2 ug samples of the total RNA, using 2 mM of Oligo(dT)15 primer, in a reaction volume of 20 ul. Portions of the resulting cDNA ( 1/20 of the product), were used in the PCR amplification. In order to amplify GAGE-1, 2, and 8, the primers used were:\n(§2) For GAGE-3, 4, 5, 6; & 7B, the primers were: • 5′- GACCAAGGCG CTATGTAC-3′ • (sense, SEQ ID NO: 6) and SEQ ID NO: 5 For all amplifications, the denaturation step was 94° C. for 5 minutes, then 30 cycles of amplification (1 minute at 94° C., 2 minutes at 58° C., 2 minutes at 72° C.), then a final extension step of 72° C. for 15 minutes. The products were analyzed by agarose gel electrophoresis, with RNA integrity being checked by reverse transcription and amplification of β-actin mRNA.\n(§3) In order to determine if expression of GAGE genes could be induced by demethylation, samples of cultured tumor and normal cells were incubated for 72 hours in culture medium containing 1 uM 5-aza-2′-deoxycytidine. SEQ ID NOS: 4 and 5, supra, were used in the amplification protocol."}, "[2]": {"test_system": "GAGE 1, 2, and 8 expression in sarcoma and melanoma cell lines", "experiment": "Induction of GAGE gene expression by demethylation, RT-PCR with SEQ ID NOS: 4 and 5", "format": "cell-based", "settings": "1 uM, 72 hours in culture medium", "procedure": "as §1, §2, §3"}},
  "data": [
    {"smiles": "Nc1ncn([C@H]2C[C@H](O)[C@@H](CO)O2)c(=O)n1", "note": "[5-aza-2′-deoxycytidine]", "values": [
      {"measurement": "expression of all GAGE genes following treatment", "setting": "[1]", "result": "expressed"},
      {"measurement": "expression of GAGE 1, 2, and 8 after demethylating treatment", "setting": "[2]", "result": "induced"}
    ]}
  ]
}
